{"source": "patent US20100010078A1", "about": "“METHODS OF TREATING ANDROGEN DEPENDENT PROSTATE CANCER BY ADMINISTERING AN ACTIVE PHARMACEUTICAL INGREDIENT BEING FISETIN, 3,3',4',7-TETRAHYDROXYFLAVONE OR A DERIVATIVE THEREOF, IN AN ORAL, TRANSDERMAL OR TOPICAL DOSAGE FORM” (priority 2008, published 2010)", "key": {"[1]": {"molecular_target": "T1, ligand binding domain (LBD) of androgen receptor (AR) (Homo sapiens, UniProt P10275)", "T1 sequence (P10275 669-900 limits assumed)": "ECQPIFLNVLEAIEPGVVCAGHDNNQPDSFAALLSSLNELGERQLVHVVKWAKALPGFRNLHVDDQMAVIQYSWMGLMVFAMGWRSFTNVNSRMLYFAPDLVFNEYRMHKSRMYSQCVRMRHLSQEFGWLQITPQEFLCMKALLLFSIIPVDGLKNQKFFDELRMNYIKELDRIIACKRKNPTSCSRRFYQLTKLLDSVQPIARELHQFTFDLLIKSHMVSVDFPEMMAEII", "test": "Competition with labeled AR ligand at the ligand binding domain (FIG. 3)"}, "[2]": {"test_system": "Bax and Bcl-2", "test": "Western blot, Bax and Bcl-2 in LNCaP cells", "format": "cell-based, human", "settings": "fisetin 10-60 μM, 48 h", "experimental": "(§1) Protein extraction and western blotting. Following the treatment of LNCaP cells with fisetin (10-60 μM; 48 h), the media was aspirated, the cells were washed with cold PBS (pH 7.4), and ice-cold lysis buffer (50 mM Tris-HCl, 150 mM NaCl, 1 mM EGTA, 1 mM EDTA, 20 mM NaF, 100 mM Na3VO4, 0.5% NP-40, 1% Triton X-100, 1 mM PMSF (pH 7.4)) with freshly added protease inhibitor cocktail (Protease Inhibitor Cocktail Set III, Calbiochem, La Jolla, Calif.) over ice for 30 min. The cells were scraped and the lysate was collected in a microfuge tube and passed through a needle to break up the cell aggregates. The lysate was cleared by centrifugal ion al 14,000 g for 15 min at 4° C. and the supernatant (whole cell lysate) was used or immediately stored at −8020 C.\n(§2) For western blotting, 30-50 μg protein was resolved over 8-12% polyacrylamide gels and transferred to a nitrocellulose membrane. The blot was blocked in blocking buffer (5% nonfat dry milk/1% Tween 20; in 20 mM TBS, pH 7.6) for 1 hr at room temperature, incubated with appropriate monoclonal or polyclonal primary antibody in blocking buffer for 1.5 h to overnight at 4° C., followed by incubation with anti-mouse or anti-rabbit secondary antibody horseradish peroxidase conjugate obtained from Amersham Life Science Inc. and detected by chemiluminescence and autoradiography using XAR-5 film obtained from Eastman Kodak Co. (Rochester, N.Y., USA). Densitometric measurements of the band in Western blot analysis were performed using digitalized scientific software program UN-SCAN-IT (Silk Scientific Corporation. Orem, Utah."}, "[3]": {"test_system": "XIAP and Smac/DIABLO", "test": "Western blot, XIAP and Smac/DIABLO in LNCaP cells", "format": "cell-based, human", "settings": "fisetin 10-60 μM, 48 h", "experimental": "as §1, with “The lysate was cleared by centrifugal ion al 14,000 g for 15 min at 4° C. and the supernatant (whole cell lysate) was used or immediately stored at −8020 C.” left out\nas §2, with “Densitometric measurements of the band in Western blot analysis were performed using digitalized scientific software program UN-SCAN-IT (Silk Scientific Corporation. Orem, Utah.” left out"}, "[4]": {"test_system": "LNCaP cells", "test": "DNA cell cycle analysis by flow cytometry", "format": "cell-based, human", "settings": "48 h", "experimental": "DNA Cell Cycle Analysis. The LNCaP cells (50-60% confluent) were treated with fisetin (10-60 μM; 48 h) in complete medium. The cells were trypsinized thereafter, washed twice with cold PBS and centrifuged. The cell pellet was resuspended in 50 μl cold PBS to which cold methanol (450 μL) was added and the cells were incubated for 1 h at 4° C. The cells were centrifuged at 1,100 rpm for 5 minutes, pellet washed twice with cold PBS, suspended in 500 μl PBS and incubated with 5 μl RNase (20 μg/ml final concentration) for 30 min. The cells were chilled over ice for 10 min and incubated with propidium iodide (50 μg/ml final concentration) for 1 h for analysis by flow cytometry. Flow cytometry was performed with a FACScan (Becton Dickinson). A minimum of 10,000 cells per sample were collected and the DNA histograms were further analyzed by using ModiFitLT software (Verily Software House, Topsham, Me.) for cell cycle analysis."}, "[5]": {"test_system": "cytochrome c", "test": "Detection of cytochrome c release into cytosol", "format": "cell-based, human", "settings": "LNCaP, fisetin 10-60 μM, 48 h", "experimental": "Detection of cytochrome c release. After the treatment of LNCaP cells with fisetin (10-60 μM; 48 h), the mitochondrial and cytosolic fractions were prepared according to manufacturer's instructions. After the separation of cytosolic and mitochondrial fraction, 40 μg protein was resolved over 12% polyacrylamide gels and immunoblotted with the cytochrome c and Cox-4 antibodies."}, "[6]": {"test_system": "caspase-3 and -7", "test": "Immunofluorescence staining for active caspase-3 and -7", "format": "cell-based, human", "settings": "LNCaP, fisetin only 40 μM, 48 h", "experimental": "Immunofluorescence staining for active caspase-3 and -7. LNCaP cells were incubated with 40 μM concentration of the general caspase inhibitor Z-VAD-FMK for 2 h, followed by the addition of fisetin (40 μM; 48 h) and then harvested. ICT's Magic Red™ substrate-based MR-Caspase assay kit was used for the immunofluorescence staining for caspase-3 and -7. This kit utilizes the fluorophore, cresyl violet. As the 4 amino acid sequence, aspartylglutamylalanylaspartic acid (DEVD) is the optimal sequence for caspase -3 as well as -7, it was coupled to cresyl violet to create the caspase 3/7 substrate, MR-(DEVD)2. […] Following enzymatic hydrolysis at one or both of the aspartic acid amide linkage sites, the mono and non-substituted cresyl violet fluorophores fluoresce red and fluorescence photographs were obtained at 510-560 nm excitation and 610 nm emission."}}, "data": [{"smiles": "O=c1c(O)c(-c2ccc(O)c(O)c2)oc2cc(O)ccc12", "note": "[fisetin, 3,3′,4′,7-tetrahydroxyflavone]", "values": [{"measurement": "competition with labeled AR ligand, interaction with LBD", "setting": "[1]", "value": "competes with a labeled AR ligand"}, {"measurement": "protein expression of Bax", "setting": "[2]", "value": "significant increase"}, {"measurement": "protein expression of Bcl-2", "setting": "[2]", "value": "significantly decreased"}, {"measurement": "ratio of Bax to Bcl-2", "setting": "[2]", "value": "significant dose-dependent shift"}, {"measurement": "protein expression of Smac/DIABLO", "setting": "[3]", "value": "induction"}, {"measurement": "protein expression of XIAP", "setting": "[3]", "value": "inhibition"}, {"measurement": "G1 phase cell cycle distribution", "setting": "[4]; fisetin 10 μM", "value": 61, "unit": "%"}, {"measurement": "G1 phase cell cycle distribution", "setting": "[4]; fisetin 20 μM", "value": 63, "unit": "%"}, {"measurement": "G1 phase cell cycle distribution", "setting": "[4]; fisetin 40 μM", "value": 67, "unit": "%"}, {"measurement": "G1 phase cell cycle distribution", "setting": "[4]; fisetin 60 μM", "value": 69, "unit": "%"}, {"measurement": "levels of cytochrome c in the cytosol", "setting": "[5]", "value": "elevated dose-dependently"}, {"measurement": "immunofluorescence staining of active caspase-3 & 7", "setting": "[6]", "value": "intense staining"}]}]}
